Test results from patent publication US11142515B2, “Pyrazolyl-ureas as kinase inhibitors” (RESPIVERT LIMITED, priority 2014, dated 2021).

What was measured:
[1] = system: IL-8 release in d-U937 cells; experiment: LPS-induced IL-8 release in d-U937 cells; assay type: cell-based; conditions: Homo sapiens, dU937, LPS 0.1 μg/mL 4 h
Method: (§1) U937 cells, a human monocytic cell line, were differentiated into macrophage-type cells by incubation with PMA (100-200 ng/mL) for 48 to 72 h. Cells were pre-incubated with final […] concentrations of test compound for 2 h and were then stimulated with LPS (0.1 μg/mL; from E. coli: O111:B4, Sigma) for 4 h. The supernatant was collected for determination of TNFα and IL-8 concentrations by sandwich ELISA (Duo-set, R&D systems). […] The relative 50% effective concentration (REC50) was determined from the resultant concentration-response curve. The inhibition of IL-8 production was calculated at each concentration of test compound by comparison with vehicle control.

[2] = target: T1, p38 MAPKα isoform (MAPK14) (Homo sapiens, UniProt Q16539); experiment: p38 MAPKα enzyme inhibition (Z-LYTE FRET); assay type: biochemical; conditions: Table 2A; read-out: IC50 Values for Enzyme Inhibition p38 MAPKα
T1 construct: purchased Life Technologies
T1 sequence (Q16539 whole entry, canonical isoform): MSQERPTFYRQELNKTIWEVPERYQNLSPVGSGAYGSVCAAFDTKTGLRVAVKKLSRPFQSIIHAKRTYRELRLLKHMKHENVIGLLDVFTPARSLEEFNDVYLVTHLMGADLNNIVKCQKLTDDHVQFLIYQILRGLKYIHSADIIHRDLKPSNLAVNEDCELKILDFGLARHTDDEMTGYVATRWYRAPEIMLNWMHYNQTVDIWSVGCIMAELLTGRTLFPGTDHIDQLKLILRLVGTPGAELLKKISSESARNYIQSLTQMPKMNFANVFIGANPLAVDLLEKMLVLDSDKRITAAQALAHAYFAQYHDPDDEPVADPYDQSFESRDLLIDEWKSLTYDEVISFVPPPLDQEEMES
In short: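 Recombinant human MAPK14 (40 ng/mL stock) was preincubated 2 h at RT with compound (stock dilutions 0.0012-40 μg/mL). The Z-LYTE FRET read-out used a MAPKAP-K2-derived peptide, and protease development for 1 h cleaved only non-phosphorylated peptide. Phosphorylation was calculated from the coumarin/fluorescein emission ratio.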

Hck = target: T2, Hck (Homo sapiens, UniProt P08631); experiment: Hck enzyme inhibition (Z-LYTE FRET); assay type: biochemical; conditions: Table 2A
T2 construct: purchased Life Technologies
T2 sequence (P08631 22-526): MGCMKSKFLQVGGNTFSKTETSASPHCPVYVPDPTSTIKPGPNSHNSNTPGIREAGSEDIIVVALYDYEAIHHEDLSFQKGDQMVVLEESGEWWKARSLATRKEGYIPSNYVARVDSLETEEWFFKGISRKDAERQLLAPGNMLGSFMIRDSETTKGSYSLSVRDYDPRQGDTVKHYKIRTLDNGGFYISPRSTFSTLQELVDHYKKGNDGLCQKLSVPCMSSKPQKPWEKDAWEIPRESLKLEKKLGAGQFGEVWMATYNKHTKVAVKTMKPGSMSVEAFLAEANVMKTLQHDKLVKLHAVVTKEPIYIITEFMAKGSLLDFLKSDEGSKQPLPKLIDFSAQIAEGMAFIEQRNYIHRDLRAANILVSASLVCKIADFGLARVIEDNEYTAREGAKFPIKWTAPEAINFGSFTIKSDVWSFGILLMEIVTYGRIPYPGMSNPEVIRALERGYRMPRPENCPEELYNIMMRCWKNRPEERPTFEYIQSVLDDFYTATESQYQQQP
Method: The enzyme inhibitory activities of compounds disclosed herein were determined by FRET using synthetic peptides labelled with both donor and acceptor fluorophores (Z-LYTE, Life Technologies, Paisley, UK).
The relevant enzyme (1000 ng/mL, 1400 ng/mL or 2000 ng/mL respectively, 2.5 μL) was incubated with the test compound (either 40 μg/mL, 12 μg/mL, 4 μg/mL, 1.2 μg/mL, 0.4 μg/mL, 0.12 μg/mL, 0.04 μg/mL, 0.012 μg/mL, 0.004 μg/mL or 0.0012 μg/mL, 2.5 μL each) for 2 h at RT. The FRET peptides (8 μM, 2.5 μL), and appropriate ATP solutions (2.5 μL, 800 μM for c-Src, and 60 μM ATP for HCK and Syk) were then added to the enzyme/compound mixtures and incubated for 1 h at RT. Development reagent (protease, 5 μL) was added for 1 h prior to detection in a fluorescence microplate reader (EnVision, Perkin Elmer).
In all cases, the site-specific protease cleaves non-phosphorylated peptide only and eliminates the FRET signal. Phosphorylation levels of each reaction were calculated using the ratio of coumarin emission (donor) over fluorescein emission (acceptor), for which low ratios indicate high phosphorylation and high ratios indicate low phosphorylation levels.

[3] = system: ICAM-1 expression in BEAS2B cells; experiment: Poly I:C-induced ICAM-1 expression in BEAS2B cells; assay type: cell-based; conditions: Homo sapiens, BEAS-2B, read-out: PolyIC/ICAM1 IC50 (BEAS2B)
Method: Poly I:C was used in these studies as a simple, RNA virus mimic. Poly I:C-Oligofectamine mixture (2% Oligofectamine±1 μg/mL Poly I:C, 25 μL; Life Technologies and Invivogen Ltd., San Diego, Calif., respectively) was transfected into BEAS2B cells (human bronchial epithelial cells, ATCC). Cells were pre-incubated with final concentrations of test compounds for 2 h and the level of ICAM-1 expression on the cell surface was determined by cell-based ELISA. At a time point 18 h after poly I:C transfection, cells were fixed with 4% formaldehyde in PBS (100 μL) and then endogenous peroxidase was quenched by the addition of washing buffer (100 μL, 0.05% Tween in PBS: PBS-Tween) containing 0.1% sodium azide and 1% hydrogen peroxide. Cells were washed with wash-buffer (3×200 μL). After blocking the wells with 5% milk in PBS-Tween (100 μL) for 1 h, the cells were incubated with anti-human ICAM-1 antibody (50 μL; Cell Signaling Technology, Danvers, Mass.) in 1% BSA PBS overnight at 4° C.
The cells were washed with PBS-Tween (3×200 μL) and incubated with the secondary antibody (100 μL; HRP-conjugated anti-rabbit IgG, Dako Ltd., Glostrup, Denmark). The cells were then incubated with of substrate (50 μL) for 2-20 min, followed by the addition of stop solution (50 μL, 1N H2SO4). The ICAM-1 signal was detected by reading the absorbance at 450 nm against a reference wavelength of 655 nm using a spectrophotometer. The cells ware then washed with PBS-Tween (3×200 μL) and total cell numbers in each well were determined by reading absorbance at 595 nm after Crystal Violet staining (50 μL of a 2% solution in PBS) and elution by 1% SDS solution (100 μL) in PBS. The measured OD 450-655 readings were corrected for cell number by dividing with the OD595 reading in each well. The inhibition of ICAM-1 expression was calculated at each concentration of test compound by comparison with vehicle control.

GSK 3α enzyme isoform = target: T3, GSK 3α enzyme isoform (Homo sapiens, UniProt P49840); experiment: GSK 3α enzyme inhibition (Z-LYTE FRET); assay type: biochemical; conditions: Table 2A; read-out: IC50 Values for Enzyme Inhibition GSK3α
T3 construct: purchased Life Technologies
T3 sequence (P49840 whole entry, canonical isoform): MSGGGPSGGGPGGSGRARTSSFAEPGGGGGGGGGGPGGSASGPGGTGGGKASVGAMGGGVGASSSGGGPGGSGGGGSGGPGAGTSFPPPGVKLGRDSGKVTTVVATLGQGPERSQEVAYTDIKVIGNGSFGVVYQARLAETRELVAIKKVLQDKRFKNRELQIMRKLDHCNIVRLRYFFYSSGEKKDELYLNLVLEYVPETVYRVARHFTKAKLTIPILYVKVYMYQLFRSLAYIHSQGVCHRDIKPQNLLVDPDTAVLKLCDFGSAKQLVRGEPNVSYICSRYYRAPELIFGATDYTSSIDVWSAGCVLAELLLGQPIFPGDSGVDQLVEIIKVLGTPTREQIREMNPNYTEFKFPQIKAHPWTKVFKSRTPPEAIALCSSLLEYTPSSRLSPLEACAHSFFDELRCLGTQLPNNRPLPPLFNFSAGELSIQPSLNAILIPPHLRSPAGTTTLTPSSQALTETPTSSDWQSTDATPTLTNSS
In short: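 Z-LYTE FRET kinase assay: GSK3α protein (500 ng/mL stock) preincubated with compound (0.0012–40 μg/mL stocks) for 2 h at RT. FRET peptide (8 μM stock) and ATP (40 μM stock) added for 1 h at RT, then protease development for 1 h. Phosphorylation taken from the coumarin/fluorescein emission ratio.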

[4] = system: TNFα release in d-U937 cells; experiment: LPS-induced TNFα release in d-U937 cells; assay type: cell-based; conditions: Homo sapiens, dU937; read-out: LPS Induced Release TNFα REC50 (dU937); also: relative to 10 µg/mL BIRB-796
Method: as §1

Row | SMILES | IC50 [1] [nM] | IC50 [2] [nM] | IC50 (Hck) [nM] | IC50 [3] [nM] | IC50 (GSK 3α enzyme isoform) [µM] | EC50 [4] [nM]
1 | COc1ccc(-n2nc(C(C)(C)C)cc2NC(=O)Nc2ccc(OCc3ccnc(Nc4cnccn4)c3)c3ccccc23)cc1 [Example 38] | 9.6 | 14 | 60 | 75.5 | 5.99 | 2.7
2 | COc1ccc(-n2nc(C(C)(C)C)cc2NC(=O)Nc2ccc(OCc3ccnc(Nc4cnccn4)c3)c3ccccc23)cc1C [Example 39] | 12.8 | 18 | 31 | 46.6 | > 15.9 | 3.4
3 | Cc1cccc(-n2nc(C(C)(C)C)cc2NC(=O)Nc2ccc(OCc3ccnc(Nc4cnccn4)c3)c3ccccc23)c1 [Example 40] | 11.7 | 11 | 23 | 637 | 8.78 | 3
4 | CC(C)c1ccc(-n2nc(C(C)(C)C)cc2NC(=O)Nc2ccc(OCc3ccnc(Nc4cnccn4)c3)c3ccccc23)cc1 [Example 41] | 43.8 | 189 | 1430 | > 1600 | 3.57 | 3
5 | CCc1ccc(-n2nc(C(C)(C)C)cc2NC(=O)Nc2ccc(OCc3ccnc(Nc4cnccn4)c3)c3ccccc23)cc1 [Example 42] | 18.3 | 15 | 89 | 197 | 6.94 | 4.3
6 | COCCNC(=O)c1cnc(Nc2cc(COc3ccc(NC(=O)Nc4cc(C(C)(C)C)nn4-c4ccc(C)s4)c4ccccc34)ccn2)cn1 [Example 43] | 41.4 | 12 | 53 | > 1420 | 7.92 | 16.8
7 | COCCNC(=O)c1cnc(Nc2cc(COc3ccc(NC(=O)Nc4cc(C(C)(C)C)nn4-c4csc(C)c4)c4ccccc34)ccn2)cn1 [Example 44] | 52.2 | 11 | 58 | 1150 | > 14.2 | 88.2
8 | CC(C)(C)c1cc(NC(=O)Nc2ccc(OCc3ccnc(Nc4cnccn4)c3)c3ccccc23)n(-c2ccc(Cl)cc2)n1 [Example 45] | 17.1 | 120 | 2240 | 1440 | 1.9 | 3.5
9 | COc1ccc(-n2nc(C(C)(C)C)cc2NC(=O)Nc2ccc(OCc3ccnc(Nc4cnccn4)c3)c3ccccc23)cc1Cl [Example 46] | 268 | 85 | 68 | 212 | 7.05 | 0.7
10 | Cc1ccc(-n2nc(C(C)(C)C)cc2NC(=O)Nc2ccc(OCc3ccnc(Nc4cncc(C5CCC5)n4)c3)c3ccccc23)cc1 [Example 47] | 15.6 | 87 | 110 | 151 | 2.8 | 5.8
11 | Cc1ccc(-n2nc(C(C)(C)C)cc2NC(=O)Nc2ccc(OCc3ccnc(Nc4cncc(C5CCCC5)n4)c3)c3ccccc23)cc1 [Example 48] | 16.7 | 91 | 133 | 92.5 | 4.21 | 0.3
12 | CC(C)(C)c1cc(NC(=O)Nc2ccc(OCc3ccnc(Nc4cnccn4)c3)c3ccccc23)n(-c2cccc(F)c2)n1 [Example 49] | 24.3 | 11 | 115 | 474 | 4.48 | 2.3
13 | CC(C)(C)c1cc(NC(=O)Nc2ccc(OCc3ccnc(Nc4cnccn4)c3)c3ccccc23)n(-c2cccc(Cl)c2)n1 [Example 50] | 30.3 | 22 | 113 | > 1620 | 7.08 | 7.1
14 | Cc1ccc(-n2nc(C(C)(C)C)cc2NC(=O)Nc2ccc(OCc3ccnc(Nc4cnccn4)c3)c3ccccc23)cc1C [Example 51] | 25.7 | 14 | 36 | 281 | > 16.3 | 2.2
15 | Cc1ccc(-n2nc(C(C)(C)C)cc2NC(=O)Nc2ccc(OCc3ccnc(Nc4cnccn4)c3)c3ccccc23)cc1C(F)(F)F [Example 52] | > 1500 | 116 | 316 | > 1500 | > 15 | 18.7
